This is an account of results in patent US20100004333A1, “COMPOSITIONS AND METHODS FOR TREATING CARDIOVASCULAR DISORDERS” (priority 2004, published 2010).

Details of data set [1]: species or system rabbits. The conditions noted are these: rabbit, in vivo. The method, then: (§1) Rabbit aortic balloon-injury model. Four groups of male New Zealand White rabbits (1.8-2.2 kg, Merunga Farm, Coffs Harbour, Australia), matched for body weight and baseline plasma cholesterol, were fed 100 g per day of normal chow±1% probucol, 0.02% DTBP, or 0.02% BP (wt/wt) for up to nine weeks. Aortic balloon-injury (ABI) was carried out at the end of week three, resulting in complete endothelial denudation. Harvesting of aortas was done after a further 6 weeks (n=6 per group). Aortic lesion assessment was carried out at the 3rd pair of lumber arteries in NZW rabbits as described in Circulation 2003, 107:2031-2036. Statistics. Data are expressed as mean±SEM. One-way ANOVA and the student-Newman-Keul's test were used to evaluate differences between groups, with P<0.05 considered significant.
To control for probucol's cholesterol-lowering effect, the animals were matched for baseline plasma cholesterol, and fed them a limited amount (100 g/day) of standard diet±the respective drug.

Data set [2] has as its system New Zealand White rabbits. Kind of data set: Apoptosis (TUNEL) and proliferation (PCNA) of vascular cells after aortic balloon injury in rabbits. It counts as in vivo. The conditions noted are these: for Apoptosis (TUNEL+ cells): FIG. 16d; for Cell proliferation (PCNA+ cells): FIG. 16e. An excerpt:
Materials and methods were as described in Example 6, except that for some experiments, aortas were also harvested 4 days (n=8 per group) after balloon injury. Sections immediately adjacent sections to those used for lesion assessment were employed for immunohistochemistry, using CD31 (endothelium, dilution 1:50, DAKO), Mac-3 (macrophages, dilution 1:200, DAKO), PCNA (cell proliferation, dilution 1:500, DAKO) and anti-rat HO-1 monoclonal antibody (dilution 1:50, Santa Cruz) with avidin-biotin-horseradish peroxidase for signal detection (Vectorstain Elite ABC Kit, Vector Laboratories). Apoptosis was assessed using the TUNEL assay kit (Roche) according to the manufacture's instructions. Digital images were taken for quantitative morphometric analysis. Intimal, medial and Mac-3^+ areas were determined using Adobe Photoshop V6.0 by tracing. Re-endothelialization was determined in longitudinal sections as the distance of CD31^+ cells from the branch orifice using Scion Image Software (Scion, ML, USA). Total cell profiles, TUNEL^+ and PCNA^+ cells were counted manually at high magnification (40× objective).

Data set [3] concerns New Zealand White rabbits. Kind of data set: Rabbit aortic balloon-injury model: intimal hyperplasia. In kind it is in vivo. The conditions noted are these: for Intimal thickening / intima-to-media ratio after aortic balloon injury: 1% probucol, 0.02% DTBP, 0.02% BP, FIG. 13a, b; for Plasma total cholesterol concentration: rabbits, FIG. 13e. On the procedure: as §1
Materials and methods were as described in Examples 6 and 7, with the following addition. DTBP-s and STBP were synthesized as described in Example 10. A total of 48 New Zealand White rabbits (1.8-2.2 kg) were used for this example. Rabbits were fed normal chow (100 g/day) without (Ctrl, n=12) or with 0.02% DTBP (wt/wt, n=6), 0.02% STBP (wt/wt, n=7), 0.02% DTBP-s (wt/wt, n=11) or 0.1% DTBP-s (wt/wt, n=7) for 9 weeks. Aortic balloon-injury was carried out at the end of week three.

The test system of data set [4] is heme oxygenase-1 (HO-1). The data set can be described thus: Heme oxygenase-1 expression, mRNA and heme oxygenase activity in rabbit aorta after balloon injury. It counts as in vivo, rabbits. The conditions noted are these: for HO-1 expression in the media of damaged aortas (immunohistochemistry): 4 days after balloon injury, FIG. 16a; for Tissue levels of HO-1 mRNA / Heme oxygenase activity in aorta: 4 days after ABI; for Tissue levels of HO-1 mRNA: FIG. 16b; for Heme oxygenase activity in aorta: FIG. 16c.

Where [5] appears, read: day 4 after aortic balloon injury.
[6] abbreviates: day 42 after aortic balloon injury.

Read-outs that look alike come from different tables or passages of the source.

Regarding `CC(C)(C)c1cc(-c2cc(C(C)(C)C)c(O)c(C(C)(C)C)c2)cc(C(C)(C)C)c1O` [BP, 3,3′,5,5′-tetra-tert-butyl-4,4′-bisphenol], the “Total drug in the vessel wall” value in data set [1] is 614±258 pmol total drug per mg protein. Also, in data set [2] (setting [5]), the “Apoptosis (TUNEL+ cells)” value is reported as “not BP”. Further, in data set [3] (6 weeks after ABI), the “Intimal thickening / intima-to-media ratio after aortic balloon injury” value is “lacked protective activity”. In addition, in data set [3], the “Plasma total cholesterol concentration” value is “significantly reduced”. Also, the “HO-1 expression in the media of damaged aortas (immunohistochemistry)” value (“HO-1 expression in the media” for short) in data set [4] is on record as “but not BP, induced HO-1 expression”.

`CC(C)(C)c1cc(SSc2cc(C(C)(C)C)c(O)c(C(C)(C)C)c2)cc(C(C)(C)C)c1O` [DTBP, 4,4′-dithiobis(2,6-di-tert-butyl-phenol)]: in data set [1] (male, New Zealand White, 9 weeks), the “Total drug in the vessel wall” value was 235±64 pmol total drug per mg protein. The “Bioavailability relative to probucol” value in data set [1] is reported as “greater bioavailability than probucol”. The “Cell proliferation (PCNA+ cells)” value in data set [2] (day 4 after ABI) is “not day 4”. In addition, in data set [2] (setting [5]), the “Apoptosis (TUNEL+ cells)” value is “significantly enhanced apoptosis”. Also, the “Cell proliferation (PCNA+ cells)” value in data set [2] (day 42 after ABI) is “significant decrease in cell proliferation”. Besides, the “Apoptosis (TUNEL+ cells)” value in data set [2] (setting [6]) is recorded as “not at day 42”. Besides, the “Protection against balloon injury-induced intimal hyperplasia” value in data set [3] (0.02% wt/wt in chow, 9 weeks, ABI at end of week three, FIG. 21) is “significant protection”. Moreover, in data set [3] (6 weeks after ABI), the “Intimal thickening / intima-to-media ratio after aortic balloon injury” value is recorded as “significantly decreasing”. In addition, the “Vessel content of non-oxidized lipid” value in data set [3] (6 weeks after ABI, FIG. 13c) is listed as “without altering”. The “Vessel content of oxidized lipid” value in data set [3] (6 weeks after ABI, FIG. 13d) is reported as “without altering”. For the same molecule, the “Protection against balloon injury-induced intimal hyperplasia, dependence on concentration” value in data set [3] (I/M ratio 6 weeks after ABI, FIG. 14) is recorded as “in a concentration-dependent manner”. Moreover, the “Activity on a molar base relative to probucol” value in data set [3] (from relative aortic drug concentrations and in vivo protection) is listed as “more active than probucol”. Also, the “Plasma total cholesterol concentration” value in data set [3] was “without effect”. In data set [4], the “Tissue levels of HO-1 mRNA” value is listed as “significantly increased”, the “Heme oxygenase activity in aorta” value was “significantly increased” and the “HO-1 expression in the media” value is “induced HO-1 expression”.

Consider `CC(C)(Sc1cc(C(C)(C)C)c(O)c(C(C)(C)C)c1)Sc1cc(C(C)(C)C)c(O)c(C(C)(C)C)c1` [probucol], for which the “Total drug in the vessel wall” value in data set [1] is on record as 663±114 pmol total drug per mg protein. The “Cell proliferation (PCNA+ cells)” value in data set [2] (day 4 after ABI) is recorded as “not day 4”. Moreover, the “Apoptosis (TUNEL+ cells)” value in data set [2] (setting [5]) was “significantly enhanced apoptosis”. Moreover, the “Cell proliferation (PCNA+ cells)” value in data set [2] (day 42 after ABI) is “significant decrease in cell proliferation”. Moreover, the “Apoptosis (TUNEL+ cells)” value in data set [2] (setting [6]) is “not at day 42”. Besides, in data set [3] (6 weeks after ABI), the “Intimal thickening / intima-to-media ratio after aortic balloon injury” value is “Inhibit Intimal Thickening”. Besides, the “Plasma total cholesterol concentration” value in data set [3] is listed as “significantly reduced”. Further, in data set [4], the “Tissue levels of HO-1 mRNA” value is “significantly increased”, the “Heme oxygenase activity in aorta” value was “significantly increased” and the “HO-1 expression in the media” value is “induced HO-1 expression”.
